Test: xn = mol fraction of the nth substance listed
Conditions: 97.6 kPa, Liquid; for viscosity: Capillary tube (Ostwald / Ubbelohde) method; for mass density: Vibrating tube method

CCCCCCCC[n+]1ccn(C)c1.[Cl-] [1-methyl-3-octylimidazolium chloride] + CC(=O)N(C)C
Conditions | mass density [kg/m3] | viscosity [mPa·s]
303.15 K, x1 = 0.139 | 958.09 | 3.63
303.15 K, x1 = 0.273 | 975.02 | 14.75
303.15 K, x1 = 0.361 | 981.93 | 32.45
303.15 K, x1 = 0.468 | 988.64 | 92.29
303.15 K, x1 = 0.602 | 994.87 | 288.58
303.15 K, x1 = 0.786 | 1001.37 | 1049.5
303.15 K, x1 = 0.877 | 1003.75 | 1865.4
303.15 K, x1 = 1 | 1006.2 | 7339.7
308.15 K, x1 = 0.139 | 954.07 | 3.26
308.15 K, x1 = 0.273 | 971.38 | 12.52
308.15 K, x1 = 0.361 | 978.45 | 26.51
308.15 K, x1 = 0.468 | 985.3 | 70.68
308.15 K, x1 = 0.602 | 991.72 | 210.24
308.15 K, x1 = 0.786 | 998.36 | 714.83
308.15 K, x1 = 0.877 | 1000.8 | 1255
308.15 K, x1 = 1 | 1003.33 | 4272.9
313.15 K, x1 = 0.139 | 950.12 | 2.94
313.15 K, x1 = 0.273 | 967.74 | 10.65
313.15 K, x1 = 0.361 | 974.97 | 21.93
313.15 K, x1 = 0.468 | 981.99 | 55.22
313.15 K, x1 = 0.602 | 988.57 | 156.62
313.15 K, x1 = 0.786 | 995.34 | 502.24
313.15 K, x1 = 0.877 | 997.86 | 853.26
313.15 K, x1 = 1 | 1000.48 | 2766.9
318.15 K, x1 = 0.139 | 946.26 | 2.65
318.15 K, x1 = 0.273 | 964.11 | 9.2
318.15 K, x1 = 0.361 | 971.5 | 18.32
318.15 K, x1 = 0.468 | 978.68 | 44.2
318.15 K, x1 = 0.602 | 985.42 | 119.22
318.15 K, x1 = 0.786 | 992.37 | 358.94
318.15 K, x1 = 0.877 | 994.92 | 594.67
318.15 K, x1 = 1 | 997.64 | 1788.6
323.15 K, x1 = 0.139 | 942.47 | 2.42
323.15 K, x1 = 0.273 | 960.49 | 8.02
323.15 K, x1 = 0.361 | 968.04 | 15.51
323.15 K, x1 = 0.468 | 975.38 | 35.89
323.15 K, x1 = 0.602 | 982.29 | 92.49
323.15 K, x1 = 0.786 | 989.43 | 263.25
323.15 K, x1 = 0.877 | 992 | 425.36
323.15 K, x1 = 1 | 994.82 | 1198.7
328.15 K, x1 = 0.139 | 938.72 | 2.21
328.15 K, x1 = 0.273 | 956.87 | 7.04
328.15 K, x1 = 0.361 | 964.59 | 13.24
328.15 K, x1 = 0.468 | 972.09 | 29.51
328.15 K, x1 = 0.602 | 979.16 | 72.76
328.15 K, x1 = 0.786 | 986.49 | 198.27
328.15 K, x1 = 0.877 | 989.12 | 310.37
328.15 K, x1 = 1 | 992 | 828.3
333.15 K, x1 = 0.139 | 934.99 | 2.04
333.15 K, x1 = 0.273 | 953.26 | 6.22
333.15 K, x1 = 0.361 | 961.14 | 11.44
333.15 K, x1 = 0.468 | 968.81 | 24.7
333.15 K, x1 = 0.602 | 976.05 | 58.34
333.15 K, x1 = 0.786 | 983.55 | 150.45
333.15 K, x1 = 0.877 | 986.24 | 231.3
333.15 K, x1 = 1 | 989.17 | 588.69
338.15 K, x1 = 0.139 | 931.23 | 1.88
338.15 K, x1 = 0.273 | 949.65 | 5.53
338.15 K, x1 = 0.361 | 957.71 | 9.98
338.15 K, x1 = 0.468 | 965.54 | 20.81
338.15 K, x1 = 0.602 | 972.96 | 47.46
338.15 K, x1 = 0.786 | 980.62 | 116.53
338.15 K, x1 = 0.877 | 983.37 | 176.46
338.15 K, x1 = 1 | 986.38 | 426.28
343.15 K, x1 = 0.139 | 927.34 | 1.74
343.15 K, x1 = 0.273 | 946.05 | 4.96
343.15 K, x1 = 0.361 | 954.28 | 8.73
343.15 K, x1 = 0.468 | 962.28 | 17.72
343.15 K, x1 = 0.602 | 969.87 | 38.89
343.15 K, x1 = 0.786 | 977.69 | 91.77
343.15 K, x1 = 0.877 | 980.49 | 136.74
343.15 K, x1 = 1 | 983.63 | 316.66
348.15 K, x1 = 0.139 | 923.35 | 1.62
348.15 K, x1 = 0.273 | 942.44 | 4.47
348.15 K, x1 = 0.361 | 950.85 | 7.7
348.15 K, x1 = 0.468 | 959.03 | 15.26
348.15 K, x1 = 0.602 | 966.79 | 32.38
348.15 K, x1 = 0.786 | 974.78 | 73.67
348.15 K, x1 = 0.877 | 977.62 | 107.08
348.15 K, x1 = 1 | 980.88 | 237.14
353.15 K, x1 = 0.139 | 919.35 | 1.51
353.15 K, x1 = 0.273 | 938.85 | 4.05
353.15 K, x1 = 0.361 | 947.43 | 6.85
353.15 K, x1 = 0.468 | 955.78 | 13.2
353.15 K, x1 = 0.602 | 963.72 | 27.28
353.15 K, x1 = 0.786 | 971.87 | 59.69
353.15 K, x1 = 0.877 | 974.77 | 85.14
353.15 K, x1 = 1 | 978.13 | 181.41
